From patent US11603546B2, “Method for preparing modified starch and use thereof” (Qilu University of Technology, priority 2020, dated 2023)
Marks after values point to notes of the source that are not given here.

Experiments:
[1] = test system: mice with type II diabetes (STZ injection plus high-glucose-high-fat diet); experiment: Type II diabetes mouse model: TC, TG, HDL-C, LDL-C; format: in vivo, Kunming strain mice; details: diabetic mice, gavage once daily, four weeks
Source text: Fifty mice were pregrouped and labeled. In the experiment, type II diabetes models were established by streptozotocin (STZ) injection plus induction by high-glucose-high-fat diet. […] The mice were randomized into five groups of 10 animals: normal group, diabetic control group, glimepiride group, RS group, and modified starch+GSPAs group; before modeling, the mice were weighed. […] The normal group was fed with normal diet for three weeks, while the remaining four groups were fed with high-glucose-high-fat diet for three weeks; then, the animals were deprived of food hut not water for 12 h; […] (which was prepared with 0.1 mol/L citric acid-sodium citrate buffer solution [pH 4.4 (4.2-4.5)] at a low temperature) was prepared when needed, and was injected intraperitoneally at a single dose of 50 mg/kg (0.5 mg/10 g) of body weight within 30 min; the mice in the normal group were given isodose citric acid-sodium citrate buffer solution and injected at a dose of 50 mg/kg every three days, during which the mice were fed with high-glucose-high-fat diet. After 72 h, the mice were deprived of food but not water for 12 h, and blood was collected from the tail vein to test the fasting blood glucose (FBG); the mice with FBG≥12 mmol/1, with obesity and polyuria were considered as the criteria for successful modeling. Ten normal and healthy mice were assigned to the normal group; the remaining successful modeled mice with type II diabetes were grouped into four groups of 10 animals according to the blood glucose level; the test period was four weeks. Specific groups are listed in Table 2: bw represents body weight. [table] Instructions for gavage dosing: The mice were administered by gavage once daily, in a volume of 0.4 mL. Also, total cholesterol (TC), triglyceride (TG), and low density lipoprotein cholesterol (LDL-C) were tested for diabetic mice, as shown in Table 3.

[2] = test system: mice with type II diabetes (STZ injection plus high-glucose-high-fat diet); experiment: Type II diabetes mouse model: HE staining of liver sections; format: in vivo, Kunming strain mice; details: diabetic mice, intervention groups (FIGS. 9 to 13)
Source text: Fifty mice were pregrouped and labeled. In the experiment, type II diabetes models were established by streptozotocin (STZ) injection plus induction by high-glucose-high-fat diet. […] The mice were randomized into five groups of 10 animals: normal group, diabetic control group, glimepiride group, RS group, and modified starch+GSPAs group; before modeling, the mice were weighed.
The normal group was fed with normal diet for three weeks, while the remaining four groups were fed with high-glucose-high-fat diet for three weeks; then, the animals were deprived of food hut not water for 12 h; […] (which was prepared with 0.1 mol/L citric acid-sodium citrate buffer solution [pH 4.4 (4.2-4.5)] at a low temperature) was prepared when needed, and was injected intraperitoneally at a single dose of 50 mg/kg (0.5 mg/10 g) of body weight within 30 min; the mice in the normal group were given isodose citric acid-sodium citrate buffer solution and injected at a dose of 50 mg/kg every three days, during which the mice were fed with high-glucose-high-fat diet. After 72 h, the mice were deprived of food but not water for 12 h, and blood was collected from the tail vein to test the fasting blood glucose (FBG); the mice with FBG≥12 mmol/1, with obesity and polyuria were considered as the criteria for successful modeling. […]

CCC1=C(C)CN(C(=O)NCCc2ccc(S(=O)(=O)NC(=O)N[C@H]3CC[C@H](C)CC3)cc2)C1=O [Glimepiride, glimepiride] was tested, and the “High density lipid cholesterol (HDL-C)” value [1] was 2.26 ± 0.31^a mmol/L, the LDL-C [1] was 0.65 ± 0.17^b mmol/L and the TC [1] was 3.16 ± 0.37^b mmol/L. The TG [1] was 1.06 ± 0.09^b mmol/L and the “HE staining of liver sections” value [2] was “improve symptoms of disordered liver cells and massive inflammatory cell infiltration”.
